Measured values as given in PubChem BioAssay AID2060883 (Molecular Pharmacology Branch, DTP, NCI, 2025).
pIC50: −log10 of the molar value.

Test system: 843782-103-R-J1-PDC complex spheroid viability
Experiment: Anticancer human tumor 843782-103-R-J1-PDC patient-derived lung adenocarcinoma cell line growth inhibition [RAS]
Conditions: for pIC50: curve of first compound; for viability, T/C: stronger effect = lower value
Outline: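 Agents were tested in combination matrices in half-log decrements from a top concentration at or near clinical Cmax (10 microM if undetermined). Targets were multi-cell spheroids of tumour lines plus HUVEC and MSC stromal cells.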

[1] = second compound 0.0316 µM, first compound 0.00316 µM
[2] = second compound 0.0316 µM, first compound 0.01 µM
[3] = second compound 0.0316 µM, first compound 0.0316 µM
[4] = second compound 0.0316 µM, first compound 0.1 µM
[5] = second compound 0.1 µM, first compound 0.00316 µM
[6] = second compound 0.1 µM, first compound 0.01 µM
[7] = second compound 0.1 µM, first compound 0.0316 µM
[8] = second compound 0.1 µM, first compound 0.1 µM
[9] = second compound 0.316 µM, first compound 0.00316 µM
[10] = second compound 0.316 µM, first compound 0.01 µM
[11] = second compound 0.316 µM, first compound 0.0316 µM
[12] = second compound 0.316 µM, first compound 0.1 µM
[13] = second compound 1 µM, first compound 0.00316 µM
[14] = second compound 1 µM, first compound 0.01 µM
[15] = second compound 1 µM, first compound 0.0316 µM
[16] = second compound 1 µM, first compound 0.1 µM
[17] = second compound 3.16 µM, first compound 0.00316 µM
[18] = second compound 3.16 µM, first compound 0.01 µM
[19] = second compound 3.16 µM, first compound 0.0316 µM
[20] = second compound 3.16 µM, first compound 0.1 µM
[21] = second compound 10 µM, first compound 0.00316 µM
[22] = second compound 10 µM, first compound 0.01 µM
[23] = second compound 10 µM, first compound 0.0316 µM
[24] = second compound 10 µM, first compound 0.1 µM
[25] = second compound 0.000949 µM, first compound 0.0316 µM
[26] = second compound 0.000949 µM, first compound 0.1 µM
[27] = second compound 0.000949 µM, first compound 0.316 µM
[28] = second compound 0.000949 µM, first compound 1 µM
[29] = second compound 0.000949 µM, first compound 3.16 µM
[30] = second compound 0.000949 µM, first compound 10 µM
[31] = second compound 0.003 µM, first compound 0.0316 µM
[32] = second compound 0.003 µM, first compound 0.1 µM
[33] = second compound 0.003 µM, first compound 0.316 µM
[34] = second compound 0.003 µM, first compound 1 µM
[35] = second compound 0.003 µM, first compound 3.16 µM
[36] = second compound 0.003 µM, first compound 10 µM
[37] = second compound 0.00949 µM, first compound 0.0316 µM
[38] = second compound 0.00949 µM, first compound 0.1 µM
[39] = second compound 0.00949 µM, first compound 0.316 µM
[40] = second compound 0.00949 µM, first compound 1 µM
[41] = second compound 0.00949 µM, first compound 3.16 µM
[42] = second compound 0.00949 µM, first compound 10 µM
[43] = second compound 0.03 µM, first compound 0.0316 µM
[44] = second compound 0.03 µM, first compound 0.1 µM
[45] = second compound 0.03 µM, first compound 0.316 µM
[46] = second compound 0.03 µM, first compound 1 µM
[47] = second compound 0.03 µM, first compound 3.16 µM
[48] = second compound 0.03 µM, first compound 10 µM
[49] = second compound 0.0949 µM, first compound 0.0316 µM
[50] = second compound 0.0949 µM, first compound 0.1 µM
[51] = second compound 0.0949 µM, first compound 0.316 µM
[52] = second compound 0.0949 µM, first compound 1 µM
[53] = second compound 0.0949 µM, first compound 3.16 µM
[54] = second compound 0.0949 µM, first compound 10 µM
[55] = second compound 0.3 µM, first compound 0.0316 µM
[56] = second compound 0.3 µM, first compound 0.1 µM
[57] = second compound 0.3 µM, first compound 0.316 µM
[58] = second compound 0.3 µM, first compound 1 µM
[59] = second compound 0.3 µM, first compound 3.16 µM
[60] = second compound 0.3 µM, first compound 10 µM
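Also: viability read after seven days of compound exposure.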

CC(C)n1nc(-c2ccc3oc(N)nc3c2)c2c(N)ncnc21 + C#Cc1c(F)ccc2cc(O)cc(-c3ncc4c(N5CC6CCC(C5)N6)nc(OCC56CCCN5CC(F)C6)nc4c3F)c12
pIC50 (second compound 0.0316 µM): 7.42 | pIC50 (second compound 0.1 µM): 7.61 | pIC50 (second compound 0.316 µM): 7.68 | pIC50 (second compound 1 µM): 7.72 | pIC50 (second compound 3.16 µM): 8.18 | pIC50 (second compound 10 µM): 9.10 | viability, T/C (second compound 0.0316 µM, first compound 0.000316 µM): 108% | viability, T/C (second compound 0.0316 µM, first compound 0.001 µM): 93.9% | viability, T/C [1]: 97.5% | viability, T/C [2]: 70.8% | viability, T/C [3]: 55.1% | viability, T/C [4]: 31.2% | viability, T/C (second compound 0.1 µM, first compound 0.000316 µM): 105% | viability, T/C (second compound 0.1 µM, first compound 0.001 µM): 95.7% | viability, T/C [5]: 93.8% | viability, T/C [6]: 72.5% | viability, T/C [7]: 42.8% | viability, T/C [8]: 29.8% | viability, T/C (second compound 0.316 µM, first compound 0.000316 µM): 101% | viability, T/C (second compound 0.316 µM, first compound 0.001 µM): 91.2% | viability, T/C [9]: 91.2% | viability, T/C [10]: 66.3% | viability, T/C [11]: 40.6% | viability, T/C [12]: 26% | viability, T/C (second compound 1 µM, first compound 0.000316 µM): 99.7% | viability, T/C (second compound 1 µM, first compound 0.001 µM): 87.8% | viability, T/C [13]: 81.7% | viability, T/C [14]: 62.1% | viability, T/C [15]: 39.6% | viability, T/C [16]: 21.8% | viability, T/C (second compound 3.16 µM, first compound 0.000316 µM): 93% | viability, T/C (second compound 3.16 µM, first compound 0.001 µM): 70% | viability, T/C [17]: 71.8% | viability, T/C [18]: 39.1% | viability, T/C [19]: 25.3% | viability, T/C [20]: 19.4% | viability, T/C (second compound 10 µM, first compound 0.000316 µM): 63.3% | viability, T/C (second compound 10 µM, first compound 0.001 µM): 41% | viability, T/C [21]: 38.5% | viability, T/C [22]: 28% | viability, T/C [23]: 18.8% | viability, T/C [24]: 10.6%

CCN1CCN(Cc2ccc(Nc3ncc(F)c(-c4cc(F)c5nc(C)n(C(C)C)c5c4)n3)nc2)CC1 + C#Cc1c(F)ccc2cc(O)cc(-c3ncc4c(N5CC6CCC(C5)N6)nc(OCC56CCCN5CC(F)C6)nc4c3F)c12
pIC50 (second compound 0.0316 µM): < 6.00 | pIC50 (second compound 0.1 µM): < 6.00 | pIC50 (second compound 0.316 µM): < 6.00 | pIC50 (second compound 1 µM): 6.04 | pIC50 (second compound 3.16 µM): 6.38 | pIC50 (second compound 10 µM): 7.12 | viability, T/C [1]: 108% | viability, T/C [2]: 93% | viability, T/C [3]: 101% | viability, T/C [4]: 105% | viability, T/C (second compound 0.0316 µM, first compound 0.316 µM): 101% | viability, T/C (second compound 0.0316 µM, first compound 1 µM): 71% | viability, T/C [5]: 107% | viability, T/C [6]: 104% | viability, T/C [7]: 93.3% | viability, T/C [8]: 97.3% | viability, T/C (second compound 0.1 µM, first compound 0.316 µM): 97.1% | viability, T/C (second compound 0.1 µM, first compound 1 µM): 75% | viability, T/C [9]: 107% | viability, T/C [10]: 101% | viability, T/C [11]: 103% | viability, T/C [12]: 99.3% | viability, T/C (second compound 0.316 µM, first compound 0.316 µM): 86.7% | viability, T/C (second compound 0.316 µM, first compound 1 µM): 65% | viability, T/C [13]: 105% | viability, T/C [14]: 92.6% | viability, T/C [15]: 93.9% | viability, T/C [16]: 89.5% | viability, T/C (second compound 1 µM, first compound 0.316 µM): 75.9% | viability, T/C (second compound 1 µM, first compound 1 µM): 46.9% | viability, T/C [17]: 87.2% | viability, T/C [18]: 88.6% | viability, T/C [19]: 79.5% | viability, T/C [20]: 69.4% | viability, T/C (second compound 3.16 µM, first compound 0.316 µM): 53.1% | viability, T/C (second compound 3.16 µM, first compound 1 µM): 40% | viability, T/C [21]: 67% | viability, T/C [22]: 60.9% | viability, T/C [23]: 57.6% | viability, T/C [24]: 46.2% | viability, T/C (second compound 10 µM, first compound 0.316 µM): 40.6% | viability, T/C (second compound 10 µM, first compound 1 µM): 26.6%

CCC(CC)c1cc(NC2CCC(N)C2)n2nccc2n1 (stereo not drawn) + CCn1c(-c2cc(N3CCN(C)CC3)cnc2C(C)OC)c2c3cc(ccc31)-c1csc(n1)CC(NC(=O)C1CC1C)C(=O)N1CCCC(N1)C(=O)OCC(C)(C)C2
pIC50 (second compound 0.000949 µM): 6.23 | pIC50 (second compound 0.003 µM): 6.39 | pIC50 (second compound 0.00949 µM): > 7.50 | pIC50 (second compound 0.03 µM): > 7.50 | pIC50 (second compound 0.0949 µM): > 7.50 | pIC50 (second compound 0.3 µM): > 7.50 | viability, T/C [25]: 75.2% | viability, T/C [26]: 76.5% | viability, T/C [27]: 72.7% | viability, T/C [28]: 30.7% | viability, T/C [29]: 0.47% | viability, T/C [30]: 0.37% | viability, T/C [31]: 53.5% | viability, T/C [32]: 53.9% | viability, T/C [33]: 58.1% | viability, T/C [34]: 31.4% | viability, T/C [35]: 0.26% | viability, T/C [36]: 0.35% | viability, T/C [37]: 30.6% | viability, T/C [38]: 34.3% | viability, T/C [39]: 36.8% | viability, T/C [40]: 17.1% | viability, T/C [41]: 0.17% | viability, T/C [42]: 0.29% | viability, T/C [43]: 21.9% | viability, T/C [44]: 19% | viability, T/C [45]: 21.2% | viability, T/C [46]: 15.5% | viability, T/C [47]: 0.09% | viability, T/C [48]: 0.27% | viability, T/C [49]: 15.7% | viability, T/C [50]: 15% | viability, T/C [51]: 16.8% | viability, T/C [52]: 14.7% | viability, T/C [53]: 0.52% | viability, T/C [54]: 0.34% | viability, T/C [55]: 15% | viability, T/C [56]: 14.2% | viability, T/C [57]: 14.8% | viability, T/C [58]: 13.4% | viability, T/C [59]: 0.25% | viability, T/C [60]: 0.53%

CC(Nc1ccc2c(c1)OCCn1cc(N3C(=O)OCC3C(F)F)nc1-2)C(N)=O (stereo not drawn) + CCn1c(-c2cc(N3CCN(C)CC3)cnc2C(C)OC)c2c3cc(ccc31)-c1csc(n1)CC(NC(=O)C1CC1C)C(=O)N1CCCC(N1)C(=O)OCC(C)(C)C2
pIC50 (second compound 0.000949 µM): 7.11 | pIC50 (second compound 0.003 µM): > 7.50 | pIC50 (second compound 0.00949 µM): > 7.50 | pIC50 (second compound 0.03 µM): > 7.50 | pIC50 (second compound 0.0949 µM): > 7.50 | pIC50 (second compound 0.3 µM): > 7.50 | viability, T/C [25]: 58% | viability, T/C [26]: 48.6% | viability, T/C [27]: 29.5% | viability, T/C [28]: 17.9% | viability, T/C [29]: 15.6% | viability, T/C [30]: 8.54% | viability, T/C [31]: 46.8% | viability, T/C [32]: 31.7% | viability, T/C [33]: 23.1% | viability, T/C [34]: 14.1% | viability, T/C [35]: 10.7% | viability, T/C [36]: 5.42% | viability, T/C [37]: 28% | viability, T/C [38]: 17.1% | viability, T/C [39]: 17% | viability, T/C [40]: 10.7% | viability, T/C [41]: 9.87% | viability, T/C [42]: 3.83% | viability, T/C [43]: 17.1% | viability, T/C [44]: 13.6% | viability, T/C [45]: 10.8% | viability, T/C [46]: 8.39% | viability, T/C [47]: 6.08% | viability, T/C [48]: 2.39% | viability, T/C [49]: 15.7% | viability, T/C [50]: 10.8% | viability, T/C [51]: 9.99% | viability, T/C [52]: 6.85% | viability, T/C [53]: 4.41% | viability, T/C [54]: 3.16% | viability, T/C [55]: 16.4% | viability, T/C [56]: 10.4% | viability, T/C [57]: 7.76% | viability, T/C [58]: 7.43% | viability, T/C [59]: 5.53% | viability, T/C [60]: 2.56%
